Consider eleven molecules from DBAASP.

≈ marks a conversion by molar mass, not a printed value.

Among the test systems are Streptococcus mutans; Leuconostoc lactis; Escherichia coli; Listeria innocua; Bacillus cereus; Streptococcus uberis; Pasteurella multocida; Micrococcus luteus; Staphylococcus aureus; Acinetobacter baumannii; Pseudomonas aeruginosa; Escherichia coli UB1005.
Holding throughout (assay): ≥ marks a high value that may be exact or a test limit, other limits are often not marked, values filed in µg/mL are converted to µM
The subject of assay [1] is Escherichia coli ATCC 25922.
Assay [2] deals with Escherichia coli ATCC 25726.
Assay [3] deals with Candida albicans ATCC 90028.
In assay [4] the test system is Staphylococcus aureus ATCC 25923.
Assay [5] relates to Staphylococcus aureus NCTC 8325.
Assay [6] has as its system Staphylococcus epidermidis.
The subject of assay [7] is Staphylococcus aureus ATCC 29213.
Assay [8] concerns Salmonella enterica subsp. enterica serovar Typhimurium C77-31.
Assay [9] deals with Staphylococcus epidermidis ATCC 12228.

The molecule `CC(C)C[C@H](NC(=O)[C@H](Cc1c[nH]c2ccccc12)NC(=O)[C@H](CCCCN)NC(=O)[C@H](CC(C)C)NC(=O)[C@H](Cc1ccccc1)NC(=O)[C@@H](NC(=O)[C@H](CCCCN)NC(=O)[C@@H](N)Cc1ccccc1)[C@@H](C)O)C(=O)N[C@@H](Cc1cnc[nH]1)C(=O)N[C@@H](CCCN=C(N)N)C(=O)N[C@@H](Cc1ccccc1)C(N)=O` [FKTFLKWLHRF] came in with an MIC against Streptococcus mutans of 15.8 µM (≈ 24 µg/mL).
For the molecule `CC[C@H](C)[C@H](NC(=O)CN)C(=O)N[C@@H](CC(C)C)C(=O)N[C@@H](CC(=O)O)C(=O)N[C@@H](CO)C(=O)N[C@@H](Cc1ccccc1)C(=O)N[C@@H](CCCCN)C(=O)NCC(=O)N[C@H](C(=O)N[C@@H](C)C(=O)N[C@@H](CCCCN)C(=O)NCC(=O)N[C@H](C(=O)N[C@@H](C)C(=O)N[C@@H](CCCCN)C(=O)N[C@@H](CC(=O)O)C(=O)N[C@@H](CC(C)C)C(=O)N[C@@H](C)C(=O)NCC(=O)N[C@@H](CCCCN)C(=O)N[C@@H](CC(C)C)C(=O)N[C@@H](CC(C)C)C(=O)N[C@@H](CC(=O)O)C(=O)N[C@@H](CCCCN)C(=O)N[C@@H](CC(C)C)C(=O)N[C@@H](CCCCN)C(=O)N[C@H]1CSSC[C@@H](C(=O)O)NC(=O)CNC(=O)[C@H]([C@@H](C)O)NC(=O)[C@H]([C@@H](C)CC)NC(=O)[C@H](CCCCN)NC1=O)C(C)C)C(C)C` [GILDSFKGVAKGVAKDLAGKLLDKLKCKITGC], the minimal inhibitory concentration (MIC) in assay [1] is 4 µM (≈ 13.2 µg/mL); in [2], 25 µM (≈ 82.2 µg/mL); in assay [3], at least 150 µM; in [4], 50 µM (≈ 164 µg/mL); in assay [5], 11 µM (≈ 36.2 µg/mL).
As for `CC[C@H](C)[C@H](NC(=O)[C@@H](NC(=O)[C@H](CCCCN)NC(=O)[C@H](C)NC(=O)[C@@H](NC(=O)[C@H](CCCCN)NC(=O)[C@H](CCCCN)NC(=O)[C@@H](NC(=O)[C@@H](NC(=O)[C@H](CCCCN)NC(=O)[C@H](Cc1ccccc1)NC(=O)[C@H](CC(C)C)NC(=O)CN)C(C)C)[C@@H](C)CC)C(C)C)C(C)C)C(=O)N[C@@H](CCCCN)C(=O)N[C@@H](CCCCN)C(=O)N[C@@H](CC(C)C)C(N)=O` [GLFKVIKKVAKVIKKL], the minimum inhibitory concentration (MIC) against Leuconostoc lactis was 3.31 µM (≈ 6 µg/mL); against Escherichia coli it was 55.2 µM (≈ 99.9 µg/mL); with Listeria innocua, 13.8 µM (≈ 25 µg/mL); in assay [6], 6.62 µM (≈ 12 µg/mL); against Bacillus cereus, 27.6 µM (≈ 50 µg/mL); against Streptococcus uberis, 27.6 µM (≈ 50 µg/mL). Also, the MIC with Pasteurella multocida was at least 55.2 µM; against Micrococcus luteus, 13.8 µM (≈ 25 µg/mL); in the assay with Staphylococcus aureus it was 27.6 µM (≈ 50 µg/mL).
As to `CC[C@H](C)[C@H](NC(=O)[C@@H](NC(=O)[C@H](C)NC(=O)[C@@H](NC(=O)[C@@H](NC(=O)[C@H](Cc1cnc[nH]1)NC(=O)[C@H](C)NC(=O)[C@H](CC(C)C)NC(=O)[C@@H](NC(=O)[C@H](Cc1cnc[nH]1)NC(=O)[C@H](CCCCN)NC(=O)[C@H](C)NC(=O)[C@@H](NC(=O)[C@H](CO)NC(=O)CNC(=O)[C@H](CC(C)C)NC(=O)[C@@H](NC(=O)[C@H](CO)NC(=O)[C@H](CC(C)C)NC(=O)[C@H](CC(C)C)NC(=O)CN)C(C)C)C(C)C)C(C)C)C(C)C)C(C)C)C(C)C)C(=O)N[C@@H](C)C(=O)N[C@@H](CCC(=O)O)C(=O)N[C@@H](Cc1cnc[nH]1)C(=O)N[C@@H](CC(C)C)C(N)=O` [GLLSVLGSVAKHVLAHVVAVIAEHL], the minimum inhibitory concentration (MIC) against Leuconostoc lactis was 9.87 µM (≈ 25 µg/mL); against Escherichia coli it was over 39.5 µM; in the assay on Listeria innocua it was at least 39.5 µM; in [6], at least 39.5 µM; against Bacillus cereus, at least 39.5 µM; against Streptococcus uberis, at least 39.5 µM. The MIC in the assay on Pasteurella multocida is at least 39.5 µM; against Micrococcus luteus it was at least 39.5 µM; against Staphylococcus aureus, over 39.5 µM.
In the case of `CC[C@H](C)[C@H](NC(=O)[C@H](CC(C)C)NC(=O)[C@H](CC(=O)O)NC(=O)CNC(=O)[C@@H](NC(=O)CN)C(C)C)C(=O)N[C@@H](CCCN=C(N)N)C(=O)N[C@@H](CCCCN)C(=O)N[C@@H](C)C(=O)N[C@H](C(=O)N[C@@H](CO)C(=O)N[C@H](C(=O)N[C@H](C(=O)N[C@@H](CCCCN)C(=O)N[C@@H](CC(N)=O)C(=O)N[C@H](C(=O)N[C@H](C(N)=O)C(C)C)[C@@H](C)CC)[C@@H](C)CC)C(C)C)C(C)C` [GVGDLIRKAVSVIKNIV], the minimal inhibitory concentration (MIC) against Leuconostoc lactis is 1.68 µM (≈ 3 µg/mL); in the assay with Escherichia coli it was over 56.1 µM; against Listeria innocua, 14 µM (≈ 25 µg/mL); in assay [6], 7.02 µM (≈ 12.5 µg/mL); against Bacillus cereus, 14 µM (≈ 25 µg/mL); against Streptococcus uberis it was 7.02 µM (≈ 12.5 µg/mL). In addition, the MIC was at least 56.1 µM with Pasteurella multocida and 28.1 µM (≈ 50 µg/mL) against Staphylococcus aureus.
Consider `CC[C@H](C)[C@H](NC(=O)[C@@H](NC(=O)CN)C(C)C)C(=O)N[C@@H](CC(=O)O)C(=O)N[C@@H](C)C(=O)N[C@@H](C)C(=O)N[C@@H](CCCCN)C(=O)N[C@@H](CCCCN)C(=O)N[C@H](C(=O)N[C@H](C(=O)N[C@@H](CC(N)=O)C(=O)N[C@H](C(=O)N[C@@H](CC(C)C)C(=O)N[C@@H](C)C(=O)N[C@@H](CC(N)=O)C(=O)N[C@@H](CC(C)C)C(=O)N[C@@H](Cc1ccccc1)C(N)=O)C(C)C)C(C)C)C(C)C` [GVIDAAKKVVNVLANLF], for which the MIC in the assay on Leuconostoc lactis is 6.78 µM (≈ 12 µg/mL); with Escherichia coli, over 56.5 µM; with Listeria innocua, at least 56.5 µM; in [6], at least 56.5 µM; in the assay on Bacillus cereus, at least 56.5 µM; in the assay on Streptococcus uberis, 28.2 µM (≈ 50 µg/mL). In addition, the minimum inhibitory concentration (MIC) in the assay on Pasteurella multocida was at least 56.5 µM; against Micrococcus luteus, at least 56.5 µM; in the assay on Staphylococcus aureus it was over 56.5 µM.
In the case of `CC[C@H](C)[C@H](NC(=O)[C@H](Cc1ccccc1)NC(=O)[C@H](CCCCN)NC(=O)[C@@H](NC(=O)[C@H](Cc1ccccc1)NC(=O)[C@H](CCC(N)=O)NC(=O)[C@H](CCCCN)NC(=O)[C@@H](N)CC(C)C)C(C)C)C(=O)N[C@@H](Cc1cnc[nH]1)C(=O)N[C@@H](CCCN=C(N)N)C(=O)N[C@@H](Cc1ccccc1)C(N)=O` [LKQFVKFIHRF], the MIC in the assay on Streptococcus mutans was found to be 16.4 µM (≈ 24 µg/mL).
In the case of `CC[C@H](C)[C@H](NC(=O)[C@H](CCCN=C(N)N)NC(=O)[C@H](CCCCN)NC(=O)[C@H](CC(C)C)NC(=O)[C@H](C)NC(=O)[C@@H](N)CCCN=C(N)N)C(=O)N[C@@H](CCCCN)C(=O)N[C@@H](Cc1cnc[nH]1)C(=O)N[C@H](C(=O)N[C@@H](CC(C)C)C(=O)N[C@@H](CCCCN)C(=O)O)C(C)C` [RALKRIKHVLK], the MIC against Streptococcus mutans was at least 91.8 µM.
`CC(C)C[C@H](NC(=O)[C@H](CCCCN)NC(=O)[C@H](Cc1c[nH]c2ccccc12)NC(=O)[C@H](CCCCN)NC(=O)[C@H](CC(C)C)NC(=O)[C@H](CCCCN)NC(=O)[C@H](Cc1c[nH]c2ccccc12)NC(=O)[C@H](CCCCN)NC(=O)[C@H](CC(C)C)NC(=O)[C@H](CCCCN)NC(=O)[C@@H](N)Cc1c[nH]c2ccccc12)C(=O)N[C@@H](CCCCN)C(N)=O` [WKLKWKLKWKLK]: the minimum inhibitory concentration (MIC) in assay [1] amounted to 4 µM (≈ 6.74 µg/mL); in the assay with Escherichia coli, 2 µM (≈ 3.37 µg/mL); against Acinetobacter baumannii, 2.83 µM (≈ 4.76 µg/mL); with Pseudomonas aeruginosa it was 4 µM (≈ 6.74 µg/mL); in assay [7], 2 µM (≈ 3.37 µg/mL); against Staphylococcus aureus it was 2 µM (≈ 3.37 µg/mL). The minimum inhibitory concentration (MIC) in [8] was found to be 2 µM (≈ 3.37 µg/mL); against Escherichia coli UB1005, 4 µM (≈ 6.74 µg/mL); in assay [9], 2 µM (≈ 3.37 µg/mL); in assay [4] it was 2 µM (≈ 3.37 µg/mL).
`CC(C)C[C@H](NC(=O)[C@H](CCCN=C(N)N)NC(=O)[C@H](Cc1c[nH]c2ccccc12)NC(=O)[C@H](CCCN=C(N)N)NC(=O)[C@@H](NC(=O)[C@H](CCCCN)NC(=O)[C@H](Cc1c[nH]c2ccccc12)NC(=O)[C@H](CCCN=C(N)N)NC(=O)[C@H](CC(C)C)NC(=O)[C@H](CCCN=C(N)N)NC(=O)[C@@H](N)Cc1c[nH]c2ccccc12)[C@@H](C)O)C(=O)N[C@@H](CCCCN)C(N)=O` [WRLRWKTRWRLK]: the MIC with Escherichia coli was 2.83 µM (≈ 5.05 µg/mL); with Acinetobacter baumannii, 4 µM (≈ 7.14 µg/mL); against Pseudomonas aeruginosa it was 8 µM (≈ 14.3 µg/mL); with Staphylococcus aureus, 2 µM (≈ 3.57 µg/mL); in assay [8], 2 µM (≈ 3.57 µg/mL); against Escherichia coli UB1005 it was 2 µM (≈ 3.57 µg/mL). The MIC in assay [9] was determined as 4 µM (≈ 7.14 µg/mL); in [4] it was 2 µM (≈ 3.57 µg/mL).
Turning to `CC(C)C[C@H](NC(=O)[C@H](Cc1cnc[nH]1)NC(=O)[C@H](CCC(N)=O)NC(=O)[C@H](Cc1ccccc1)NC(=O)[C@H](CCC(=O)O)NC(=O)[C@@H](NC(=O)[C@H](CC(C)C)NC(=O)[C@H](CC(C)C)NC(=O)[C@@H](N)Cc1ccc(O)cc1)[C@@H](C)O)C(=O)N[C@@H](Cc1ccccc1)C(=O)N[C@@H](CCCCN)C(=O)O` [YLLTEFQHLFK], the minimum inhibitory concentration (MIC) against Streptococcus mutans is at least 86.9 µM.

The MIC is the least concentration at which growth counts as inhibited.
